In patent publication US12515027B2, “Subcutaneous biodegradable reservoir device” (Research Triangle Institute, priority 2018, dated 2026):
“And” between values parts separate entries of the source, which are not always exact repeats. Equal entries are not always repeated. Structures can show the parent of a compound that is named as a salt.

Legend:
[1] = Solubility of active agents in excipients (saturated solutions, UPLC/UV)
Description: Over a 24-hour period, the solutions were mixed periodically and returned to the water bath. After approximately 72 hours, the solutions were removed from the water bath and appearance recorded for each of the saturated solutions. […] The supernatants were prepared for analysis by UPLC. Triplicate weighed aliquots were prepared from the collected supernatants and analyzed for assay using a UPLC/UV method. The analysis was performed using a Waters BEH C18 column (2.1 mm×50 mm, 1.7 μm) under gradient, reversed phase conditions with detection at 260 nm. The saturated solutions were quantitated by linear regression analysis against a 5-point calibration curve.
Testing using the same methodology was performed for EFdA, LNG, and ENG using various excipients.

[2] = In vitro release from PCL reservoir implants in PBS pH 7.4 at 37 °C (UV-Vis); format: physicochemical; settings: for release rate of TAF: first 30 days, normalized to 314 mm^2; for release rate of TAF from implant: summary b130; for TAF dosage (daily release rate): release over 35 days, FIG. 24; for Release Rates of TAF, Gamma-Irradiated: 18-24 kGy
Description: The implants were incubated in 1×PBS (pH 7.4) at 37° C. Drug quantity released in media was measured via UV-Vis three times per week during which the implants were transferred to fresh buffer to maintain sink conditions. Drug concentrations were determined by correlating UV absorbance values to a standard curve. Standard curves involved measuring peak absorbance values as a function of drug concentrations diluted by half from bulk solutions. Peak absorbance values were determined by scanning the dilute drug solutions from 230 to 700 nm at a step size of 1 nm and assessing the maximum UV absorbance value.
Testing was performed to evaluate release kinetics of varying formulations of active agent and excipient. In particular, the release mechanism and release profiles for TAF formulated with varying mass quantities of castor oil from extruded PCL tubes was evaluated. Heat extruded PCL devices were fabricated (2.5 mm×40 mm) using 80 kDa Sigma grade PCL. […] For the in vitro release studies, devices were incubated in 40 mL of phosphate buffered saline (PBS) at pH 7.4 in a shaking incubator at 37° C. The implants were transferred to fresh buffer three times per week to maintain sink conditions.
Testing was performed to evaluate the in vitro release profile for an exemplary segmented device. In-vitro conditions included a simulated physiological media of a salt solution at pH between 6.5 and 7.5 at a temperature of 37° C. The exemplary device was engineered to release two APIs simultaneously, both at zero-order release kinetics. The device was fabricated with a segmented architecture that contained LNG formulated with ethyl oleate at a 1:4 ratio and EFdA formulated with castor oil at a 1:1 ratio and housed in separate compartments within a single implant design. Different segment lengths, polymer membrane thicknesses and polymer properties were tested.
In vitro release characterization involved incubation of the implants in 40 mL 1× phosphate buffered saline (PBS) (pH 7.4) at 37° C. and placed on an orbital shaker. […] The release buffer was sampled three times per week during which the devices were transferred to 40 mL of fresh buffer to maintain sink conditions. TAF quantity released in each PBS buffer during the time interval was calculated and cumulative mass of drug release as a function of time was determined.

[3] = Chromatographic purity (stability) of formulation inside implant after in-vitro exposure (UPLC/UV); format: physicochemical; settings: after 180 days in simulated physiological conditions
[4] = subcutaneous implant, up to 90 days
Description: Testing was performed to evaluate the in vivo release profile of an exemplary device.

[5] = subdermal silicone implant with PVA-coated channels, beagle dogs; cited from earlier work

Compound: CC(C)OC(=O)[C@H](C)N[P@](=O)(CO[C@H](C)Cn1cnc2c(N)ncnc21)Oc1ccccc1 [TAF, Tenofovir Alafenamide Fumarate]
- solubility at 72 h ([1]; 37 °C, oil or lipid, thermodynamic from solid): 3900 µg/mL
- solubility of TAF within four different excipients ([1]; sesame oil, castor oil, oleic acid, PEG 600, FIG. 8): most soluble in oleic acid and PEG600
- release rate of TAF ([2]; 2:1 TAF:castor oil, 45 μm wall): 0.91 ± 0.23 mg/day
- release rate of TAF ([2]; 2:1 TAF:castor oil, 70 μm wall): 0.61 ± 0.09 mg/day
- release rate of TAF ([2]; 2:1 TAF:castor oil, 100 μm wall): 0.29 ± 0.05 mg/day
- release rate of TAF ([2]; 2:1 TAF:castor oil, 150 μm wall): 0.19 ± 0.04 mg/day
- release rate of TAF ([2]; 2:1 TAF:castor oil, 200 μm wall): 0.15 ± 0.03 mg/day
- initial release rate ([2]; 4:1 TAF-castor oil formulation): 0.2 mg/day
- initial release rate ([2]; 5:1 TAF-castor oil formulation): 0.4 mg/day
- release rate of TAF from implant ([2]; 45 μm PCL wall): approximately 0.8 mg/day
- TAF dosage (daily release rate) ([2]; 45 μm wall thickness, 2:1 TAF:castor oil): 0.78 ± 0.03 mg/day
- release rate of TAF from implant ([2]; 200 μm PCL wall): ~0.2 mg/day
- TAF dosage (daily release rate) ([2]; 200 μm wall thickness, 2:1 TAF:castor oil): 0.13 ± 0.01 mg/day
- Release Rates of TAF, Non-Irradiated ([2]; PC-12, 70 μm wall): 0.37 ± 0.05 mg/day
- Release Rates of TAF, Gamma-Irradiated ([2]; PC-12, 70 μm wall): 0.30 ± 0.03 mg/day
- Release Rates of TAF, Non-Irradiated ([2]; PC-12, 100 μm wall): 0.20 ± 0.03 mg/day
- Release Rates of TAF, Gamma-Irradiated ([2]; PC-12, 100 μm wall): 0.20 ± 0.02 mg/day
- Release Rates of TAF, Non-Irradiated ([2]; Sigma-PCL, 70 μm wall): 0.62 ± 0.09 mg/day
- Release Rates of TAF, Gamma-Irradiated ([2]; Sigma-PCL, 70 μm wall): 0.54 ± 0.06 mg/day
- Release Rates of TAF, Non-Irradiated ([2]; Sigma-PCL, 100 μm wall): 0.29 ± 0.05 mg/day
- Release Rates of TAF, Gamma-Irradiated ([2]; Sigma-PCL, 100 μm wall): 0.32 ± 0.03 mg/day
- Measured release rates for full sized device ([2]; TAF castor oil devices (1:1, 2:1, 3:1), PCL wall 70 μm, 2.5 mm x 40 mm): 0.7 mg/day and 0.7 ± 0.08 mg/day
- Measured release rates for full sized device ([2]; TAF castor oil devices, PCL wall 100 μm): 0.38 ± 0.04 mg/day
- Measured release rates for full sized device ([2]; TAF castor oil devices, PCL wall 200 μm): 0.22 ± 0.01 mg/day
- J, drug released from the membrane per unit area per unit time ([2]; TAF castor oil, 70 μm, surface area 314 mm^2): 0.002 mg/day/mm^2
- start of depletion ([2]; TAF:castor oil 1:1, 70 μm, 2.5 mm x 40 mm): 76 days
- start of depletion ([2]; TAF:castor oil 2:1, 70 μm, 2.5 mm x 40 mm): 83 days
- TAF remaining within the implant ([2]; after 180 days in vitro, payload approximately 115 mg): approximately 68 mg
- sustained release rate of TAF ([2]; over the course of 180 days in vitro, 2:1 TAF:castor oil, 100 μm wall, 2.5 mm OD x 40 mm): 0.25 ± 0.03 mg/day
- duration of zero-order release from segmented implants ([2]; segmented implants of TAF with LNG or ENG): 50 days
- chromatographic purity of TAF remaining in implant [3]: 89.2±0.8%
- reactivity at the site of the implant [4]: minimal reactivity
- duration of drug delivery [5]: 40 days
